Patent publication US9351955B2, “Compounds and pharmaceutical compositions thereof for the treatment of cystic fibrosis” (Galapagos NV, priority 2013, dated 2016)

Key:
[1] = molecular target: T1, CYP3A4 (Homo sapiens, UniProt P08684); test: Time dependent inhibition (TDI) of CYP3A4 in human liver microsomes; format: in vitro ADME
T1 construct: tissue BD Gentest; host or cells: human liver microsomes
Description: 8.7.11. Time Dependent Inhibition (TDI) 8.7.11.1. Protocol
The mechanism-based inhibition assay for CYP3A4 is carried out to evaluate the presence of any TDI.
A 5 mM stock solution of test compound is prepared in methanol. This stock is serially diluted 1:3 in methanol and then added in duplicates to mixture containing 50 mM potassium phosphate buffer pH 7.4 and human liver microsomes (BD Gentest). Final reaction conditions are as follows: seven test compound concentrations (0.14-100 μM), prepared in duplicates and 2% methanol.
A summary of the specific conditions is shown below.
After finishing the pre-incubation, the reaction is finally started by adding the co-factor mix to the first replica and probe substrate to second replica (opposite from pre-incubation).
After incubation at 37° C., the reaction (aliquot of 50 μL) is terminated with 150 μL acetonitrile:methanol (2:1) solution with internal standard (warfarin). Samples are centrifuged and the supernatant fractions analyzed by LC-MS/MS.
The instrument responses (ratio of test compound and internal standard peak areas) are referenced to those for solvent controls (assumed as 100%) in order to determine the percentage reduction in probe metabolism. […]

[2] = Lung distribution study; format: in vivo, Sprague-Dawley rats; settings: male, Sprague-Dawley, rat, plasma, oral, 10 mg/kg, exposure values
Description: Sprague-Dawley rats (male, 5-6 weeks old) are obtained from Janvier (France). Rats are acclimatized for at least 5 days before treatment and are kept on a 12 h light/dark cycle. Temperature is maintained at approximately 22° C., and food and water are provided ad libitum. Two days before administration of the test compounds, rats may undergo surgery to place a catheter in the jugular vein under isoflurane anesthesia. After the surgery, rats are housed individually. Rats are deprived of food for at least 16 h before oral dosing and 6 h after. Water is provided ad libitum.
8.7.3. Lung Distribution Studies
Compounds are formulated in 0.5% methylcellulose and EtOH/PEG 200/Methylcellulose 0.5% (10/25/65 v/v/v) by the oral route. Test compounds are orally dosed as a single esophageal gavage at 10 mg/kg under a dosing volume of 5 mL/kg. Each group consists of 12 rats. At each time point, typically 1, 3, 6 and 24 h, animals are euthanized and blood and lung samples are collected. Whole blood samples are centrifuged at 1500 g for 10 min and the resulting plasma samples, along with the lung samples, are stored at −20° C. pending analysis.
8.7.4. Quantification of Compound Levels in Plasma and Lung Samples
Lung samples are milled in the presence of ceramic beads and proteins present in plasma and lung samples are precipitated with an organic solvent. Concentrations of each test compound are determined by an LC-MS/MS method in which the mass spectrometer is operated in positive or negative electrospray mode.
For each animal, the lung-to-plasma ratio is determined as the ratio between compound concentration in lung and in plasma. At each sampling time point, mean, standard error of the mean (sem) and coefficient of variation (CV %) are calculated using data from three animals.

T1 sequence (P08684 whole entry): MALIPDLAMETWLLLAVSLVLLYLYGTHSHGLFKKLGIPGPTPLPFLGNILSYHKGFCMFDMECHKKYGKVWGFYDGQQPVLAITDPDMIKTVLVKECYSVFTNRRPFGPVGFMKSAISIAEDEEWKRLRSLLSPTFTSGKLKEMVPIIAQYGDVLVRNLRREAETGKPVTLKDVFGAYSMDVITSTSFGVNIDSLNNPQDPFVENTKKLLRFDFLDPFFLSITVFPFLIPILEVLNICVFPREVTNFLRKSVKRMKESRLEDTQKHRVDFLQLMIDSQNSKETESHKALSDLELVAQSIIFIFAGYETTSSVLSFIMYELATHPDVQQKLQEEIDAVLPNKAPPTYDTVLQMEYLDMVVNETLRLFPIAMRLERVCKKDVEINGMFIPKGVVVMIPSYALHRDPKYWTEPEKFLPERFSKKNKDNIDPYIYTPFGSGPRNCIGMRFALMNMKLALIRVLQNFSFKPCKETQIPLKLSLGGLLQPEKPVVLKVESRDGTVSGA

IC50 ([1]; both without and with preincubation, Midazolam or testosterone as probe substrate, human liver microsomes) | AUC(0-t) [2] | SMILES | time-dependent inhibition of CYP3A4 ([1]; IC50 without vs with preincubation)
> 100 µM | – | CC1(C)Cc2c(sc(NC(=O)c3ccn[nH]3)c2C(N)=O)C(C)(C)O1 [Compound 2, N-(3-carbamoyl-5,5,7,7-tetramethyl-5,7-dihydro-4H-thieno[2,3-c]pyran-2-yl)-1H-pyrazole-5-carboxamide] | no evidence for time-dependent inhibition of CYP3A4
– | 38900 ng·h/mL | CC1(C)Cc2c(sc(NC(=O)C3(CO)CC3)c2C(N)=O)C(C)(C)O1 [Compound 9, 2-(1-(hydroxymethyl)cyclopropanecarboxamido)-5,5,7,7-tetramethyl-5,7-dihydro-4H-thieno[2,3-c]pyran-3-carboxamide] | –
